Laboratory results from PubChem BioAssay AID1918945 (Molecular Pharmacology Branch, DTP, NCI, 2023).
Values joined by “and” are separate entries in the source; they are usually repeats but may differ in a detail not shown here. Equal entries are not always repeated.

Test system: 883617-216-R-J1-PDC complex spheroid viability
Assay: Anticancer human tumor 883617-216-R-J1-PDC patient-derived bladder carcinoma cell line growth inhibition
Settings: for viability, T/C: stronger effect = lower value
From the text: Multicellular complex tumor spheroid response to LSD1 Inhibitor Iadademstat in combination with a variety of drugs and investigational agents in selected tumor cell lines
The current study was undertaken to assess response to LSD1 inhibitors in combination with standard-of-care drugs and investigational agents in solid tumor complex spheroid models as well as in the K-562 leukemia. Complex spheroids include a stromal component modeled by human endothelial cells (HUVEC) and fibroblasts modeled by human mesenchymal stem cells (MSCs). The concentration ranges selected for each drug and investigational agent were based upon clinically achievable concentrations if the clinical Cmax of the agent was known.
Compounds. The drugs and investigational agents used in this study are listed on Table 1. All of the agents used, including staurosporine (NSC755774) and gemcitabine (NSC613327), were obtained from the Developmental Therapeutics Program, NCI. FDA-approved anticancer drugs are available from the NCI at http://dtp.nci.nih.gov/branches/dscb/oncology_drugset_explanation.html. Drugs and investigational agents were >95% pure by proton nuclear magnetic resonance (NMR) and liquid chromatography/mass spectrometry (LC/MS). Stock solutions were prepared at 400x in DMSO, stored at -70 degrees C, and diluted in fresh medium prior to their use. The final concentration of DMSO in cell culture wells never exceeded 0.25% (v/v). The FDA-approved anticancer drug set is available from the Developmental Therapeutics Program at https://dtp.cancer.gov/organization/dscb/obtaining/available_plates.htm. All drugs and investigational agents were tested over a range starting from a high concentration at or near the clinical Cmax and decreasing in half-log increments. If the clinical Cmax for an agent had not been determined, the highest concentration tested was 10 microM.
Cell Lines. The patient-derived cancer cell (PDC) lines: 292921-168-R-J2-PDC, K24384-001-R-PDC, and 521955-158-R2-J5-PDC pancreatic carcinomas, 556581-035-R-J1 ovarian carcinoma, 324938-238-R-J1-PDC, 855422-203-R-J1-PDC and 883617-216-R-J1-PDC urothelial bladder carcinomas, 743489-274-T-PDC renal cell carcinoma, 138582-R-J1 Merkel cell tumor, K60290-347-R-J1 and K57222-313-R-J1-PDC glioblastomas, 653999-131-R-J2-PDC, LG0703-F948-PDC, and 349418-098-R-PDC non-small cell lung carcinomas, 885512-296-R-J2-PDC, 171881-019-R-J1-PDC breast carcinomas and 186277-243-T-J2-PDC and 233499-124-R-J2-PDC colon carcinomas were obtained from the NCI Patient-Derived Models Repository (PDMR, https://pdmr.cancer.gov). The established cell lines NCI/ADR-RES (RRID:CVCL_14520 and OVCAR-5 (RRID:CVCL_1628) ovarian carcinomas, 786-O (RRID:CVCL_1051) and A498 (RRID:CVCL_A498) renal cell carcinoma, NCI-H211 (ATCC, cat. CRL-5824; RRID:CVCL_1529), NCI-H196 (ATCC, cat. CRL-5823, RRID:CVCL_1509), SW 1271 (ATCC, cat. CRL-2177, RRID:CVCL_1716) and NCI-H1876 (ATCC, cat. CRL-5902, RRID:CVCL_1503) small cell lung carcinomas, MDA-MB-231 (RRID:CVCL_0062) and MDA-MB-468 (RRID:CVCL_0419)breast carcinomas (10-12). Pooled donor human umbilical vein endothelial cells (HUVEC, Lonza, cat. CC-2519) and human mesenchymal stem cells (hMSC, Lonza, cat. PT-2501) were purchased from Lonza (Walkersville, MD).
Cell Culture. All cells were maintained in an incubator at 37 degrees C and 5% CO2 with 95% humidity. The PDC lines were cultured according to standard operating procedures established by the NCI PDMR (https://pdmr.cancer.gov). Briefly all PDCs were thawed and cultured in Matrigel-coated flasks prepared with a working solution of 1X Ham's F-12 nutrient mix, without supplementation (Invitrogen, Waltham, MA, cat. 11765054), 100 U/mL penicillin-streptomycin (Invitrogen, cat. 15140122), and 2.5% Matrigel (Corning Inc., Corning, NY, cat. 354248) for the first three passages. […]
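Note: exposure lasted seven days after three days of spheroid growth.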
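Throughout, for viability, T/C: 100% = DMSO vehicle control luminescence.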

SMILES | IC50 (curve of compound) | viability, T/C (compound 0.0316 µM) | viability, T/C (compound 0.1 µM) | viability, T/C (compound 0.316 µM) | viability, T/C (compound 1 µM) | viability, T/C (compound 0.00949 µM) | viability, T/C (compound 0.03 µM) | viability, T/C (compound 0.0949 µM) | viability, T/C (compound 0.3 µM) | further results
COc1ccc([C@@H](O)c2cc(-c3ncnc4cc(N5CCOCC5)ccc34)c(F)cc2Cl)nn1 | 1000 nM and 524 nM | 91.2% and 99.6% | 89.8% and 86.9% | 67.2% and 52.7% | 48.6% and 41.2% | – | – | – | – | viability, T/C (compound 3.16 µM): 37.1% and 26.7%; viability, T/C (compound 10 µM): 22.2% and 14.9%
Cn1ncnc1C1c2n[nH]c(=O)c3cc(F)cc(c23)NC1c1ccc(F)cc1 (stereo unspecified) | – | 64.4% and 38.5% | 54.2% and 38% | – | – | – | – | – | – | viability, T/C (compound 0.000316 µM): 104% and 89.5%; viability, T/C (compound 0.001 µM): 104% and 89.1%; viability, T/C (compound 0.00316 µM): 105% and 70.6%; viability, T/C (compound 0.01 µM): 75.7% and 48.9%
NC1CC1c1ccc(-c2cccc(O)c2)cc1 (stereo unspecified) | – | – | 107% | – | – | – | – | – | – | IC50 (compound alone, run of 12/07/2021): > 10000 nM
NC1CCC(NC2CC2c2ccccc2)CC1 (stereo unspecified) | – | – | 103% [middle of 25 runs] | 107% and 112% | 104% [middle of 25 runs] | – | – | – | – | viability, T/C (compound 3.16 µM): 105% [middle of 25 runs]; viability, T/C (compound 10 µM): 107% [middle of 23 runs]; IC50 (compound alone, run of 11/29/2021): > 10000 nM
NS(=O)(=O)OCC1CC(n2ccc3c(NC4CCc5ccccc54)ncnc32)CC1O (stereo unspecified) | 395 nM and 204 nM | – | – | – | – | 105% and 114% | 120% and 108% | 103% and 94.9% | 59.1% and 27.2% | viability, T/C (compound 0.949 µM): 21.5% and 8.78%; viability, T/C (compound 3 µM): 14% and 6.66%
Nc1ncn(C2CC(O)C(CO)O2)c(=O)n1 (stereo unspecified) | > 1000 nM and 870 nM | 96.5% and 72.9% | 86.3% and 58.4% | 73.2% and 54.2% | 67.8% and 49.4% | – | – | – | – | viability, T/C (compound 0.00316 µM): 103% and 98.2%; viability, T/C (compound 0.01 µM): 99.5% and 83.4%
Nc1ncn(C2CC(O)C(CO)S2)c(=O)n1 (stereo unspecified) | – | – | – | – | – | 87.3% and 55.7% | 69% and 39.4% | 58% and 34.1% | 44% and 27.4% | viability, T/C (compound 0.000949 µM): 108% and 85.9%; viability, T/C (compound 0.003 µM): 105% and 77%
O=C(C=Cc1cccc(S(=O)(=O)Nc2ccccc2)c1)NO | 158 nM and 66 nM | – | – | – | – | 97.1% and 80.1% | 76.2% and 59% | 51.9% and 41.6% | 38.6% and 33.9% | viability, T/C (compound 0.949 µM): 28.6% and 14.6%; viability, T/C (compound 3 µM): 3.45% and 0.83%

The next lines start with results.

IC50 (curve of compound) | SMILES | viability, T/C (compound 0.0316 µM) | viability, T/C (compound 0.1 µM) | viability, T/C (compound 0.316 µM) | viability, T/C (compound 1 µM) | viability, T/C (compound 0.00949 µM) | viability, T/C (compound 0.03 µM) | viability, T/C (compound 0.0949 µM) | viability, T/C (compound 0.3 µM) | further results
167 nM and 163 nM | Nc1ccccc1NC(=O)c1ccc(CNC(=O)OCc2cccnc2)cc1 | – | – | – | – | 110% and 105% | 94.2% and 104% | 64.6% and 56.3% | 33.3% and 36% | viability, T/C (compound 0.949 µM): 15.7% and 17.6%; viability, T/C (compound 3 µM): 0.87% and 1.11%
< 0.949 nM | Nc1ccn(C2OC(CO)C(O)C2(F)F)c(=O)n1 (stereo unspecified) | – | – | – | – | 21.2% and 23% | 23.5% and 25.3% | 23.3% and 24.1% | 21.9% and 23.4% | viability, T/C (compound 0.000949 µM): 24.4% and 23%; viability, T/C (compound 0.003 µM): 20.5% and 20.8%
14.6 nM and 5.02 nM | O=C(C=Cn1cnc(-c2cc(C(F)(F)F)cc(C(F)(F)F)c2)n1)NNc1cnccn1 | 35.6% and 23.6% | 31.5% and 16.4% | 28.4% and 14.6% | 23.4% and 14.3% | – | – | – | – | viability, T/C (compound 0.00316 µM): 87.2% and 64.4%; viability, T/C (compound 0.01 µM): 56.7% and 27.2%
4910 nM and 633 nM | O=C(c1cc(Cc2n[nH]c(=O)c3ccccc23)ccc1F)N1CCN(C(=O)C2CC2)CC1 | 90.5% and 78.2% | 99.3% and 78.3% | 92.2% and 59.4% | 75.5% and 42.5% | – | – | – | – | viability, T/C (compound 3.16 µM): 54.9% and 41.5%; viability, T/C (compound 10 µM): 43.3% and 30.9%
